Laboratory results as given in patent publication US7109193B2, “Tricyclic diazepines tocolytic oxytocin receptor antagonists” (Wyeth, priority 2001, dated 2006).

Target: T1, human vasopressin V2 receptor subtype (Homo sapiens, UniProt P30518)
T1 construct: host or cells: CHO cells (pZeoSV vector)
Test: Vasopressin binding in Chinese Hamster Ovary cell membranes expressing human vasopressin V2 subtype receptors
Settings: CHO cell membranes, [3H]arginine vasopressin; for inhibition at 0.1 µM: 100 nM, values without parentheses; for IC50: values in parentheses
Procedure, shortened: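 Radioligand displacement on membranes from CHO cells stably expressing human V2 receptor, 25 to 50 μg protein/well, in 50 mM Tris-HCl pH 7.4 with MgCl2, BSA and protease inhibitors. [^3H]arginine vasopressin (8 nM working solution) incubated 60 min at room temperature; bound label measured by filtration and scintillation counting.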

T1 sequence (P30518 whole entry): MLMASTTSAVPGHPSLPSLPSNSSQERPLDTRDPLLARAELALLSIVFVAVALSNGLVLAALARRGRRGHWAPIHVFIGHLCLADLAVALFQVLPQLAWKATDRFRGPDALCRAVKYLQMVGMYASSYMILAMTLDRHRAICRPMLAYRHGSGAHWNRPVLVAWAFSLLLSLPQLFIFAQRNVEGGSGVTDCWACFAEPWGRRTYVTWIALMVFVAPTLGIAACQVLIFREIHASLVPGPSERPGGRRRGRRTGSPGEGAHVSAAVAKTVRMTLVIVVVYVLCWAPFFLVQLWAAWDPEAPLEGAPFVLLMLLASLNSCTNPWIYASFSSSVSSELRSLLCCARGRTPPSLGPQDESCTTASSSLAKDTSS

Row | inhibition at 0.1 µM | IC50 | SMILES
1 | 11% |  | COc1ccccc1-c1ccc(C(=O)N2Cc3ccc(C(=O)N(C)CCCN(C)C)n3Cc3ccccc32)cc1 [Example 103, N-[3-(Dimethylamino)propyl]-10-[(2′-methoxy[1,1′-biphenyl]-4-yl)carbonyl]-N-methyl-10,11-dihydro-5H-pyrrolo[2,1-c][1,4]benzodiazepine-3-carboxamide]
2 |  | 2310 nM | Cc1cc(C(=O)N2Cc3ccc(C(=O)N4CCCN(C)CC4)n3Cc3ccccc32)ccc1-c1ccccc1C(F)(F)F [Example 59, (4-Methyl-1,4-diazepan-1-yl)(10-{[2-methyl-2′-(trifluoromethyl)[1,1′-biphenyl]-4-yl]carbonyl}-10,11-dihydro-5H-pyrrolo[2,1-c][1,4]benzodiazepin-3-yl)methanone]
3 | 13% |  | COc1cccc(-c2ccc(C(=O)N3Cc4ccc(C(=O)N(C)CCN(C)C)n4Cc4ccccc43)cc2OC)c1 [Example 95, 10-[(2,3′-Dimethoxy[1,1′-biphenyl]-4-yl)carbonyl]-N-[2-(dimethylamino)ethyl]-N-methyl-10,11-dihydro-5H-pyrrolo[2,1-c][1,4]benzodiazepine-3-carboxamide]
4 |  | 722 nM | COc1cc(-c2ccccc2C)c(Cl)cc1C(=O)N1Cc2ccc(C(=O)N3CCN(C)CC3)n2Cc2ccccc21 [Example 47, {10-[(6-Chloro-3-methoxy-2′-methyl[1,1′-biphenyl]-4-yl)carbonyl]-10,11-dihydro-5H-pyrrolo[2,1-c][1,4]benzodiazepin-3-yl}(4-methyl-1-piperazinyl)methanone]
5 | 24% |  | Cc1cc(C(=O)N2Cc3ccc(C(=O)N4CCN(CCCN(C)C)CC4)n3Cc3ccccc32)ccc1-c1ccccc1C(F)(F)F [Example 4, [4-(3-Dimethylaminopropyl)-piperazin-1-yl]-[10-(2-methyl-2′-trifluoromethyl-[1,1′-biphenyl]-4-yl)carbonyl]-[10,11-dihydro-5H-pyrrolo[2,1-c][1,4]benzodiazepin-3-yl]-methanone]
6 |  | 1350 nM | COc1cc(-c2ccccc2C)ccc1C(=O)N1Cc2ccc(C(=O)N(C)CCCN(C)C)n2Cc2ccccc21 [Example 11, N-Methyl-N-[3-(dimethylamino)propyl]-10-[(3-methoxy-2′-methyl[1,1′-biphenyl]-4-yl)carbonyl]-10,11-dihydro-5H-pyrrolo[2,1-c][1,4]benzodiazepine-3-carboxamide]
7 | 19% |  | COc1ccccc1-c1ccc(C(=O)N2Cc3ccc(C(=O)N(C)CCN(C)C)n3Cc3ccccc32)cc1 [Example 90, N-[2-(Dimethylamino)ethyl]-10-[(2′-methoxy[1,1′-biphenyl]-4-yl)carbonyl]-N-methyl-10,11-dihydro-5H-pyrrolo[2,1-c][1,4]benzodiazepine-3-carboxamide]
8 | 20% |  | Cc1ccccc1-c1ccc(C(=O)N2Cc3ccc(C(=O)N(C)CCCN(C)C)n3Cc3ccccc32)cc1 [Example 104, N-[3-(Dimethylamino)propyl]-N-methyl-10-[(2′-methyl[1,1′-biphenyl]-4-yl)carbonyl]-10,11-dihydro-5H-pyrrolo[2,1-c][1,4]benzodiazepine-3-carboxamide]
9 | 17% |  | Cc1ccccc1-c1ccc(C(=O)N2Cc3ccc(C(=O)N(C)CCN(C)C)n3Cc3ccccc32)cc1 [Example 91, N-[2-(Dimethylamino)ethyl]-N-methyl-10-[(2′-methyl[1,1′-biphenyl]-4-yl)carbonyl]-10,11-dihydro-5H-pyrrolo[2,1-c][1,4]benzodiazepine-3-carboxamide]
10 | 43% |  | COc1cc(C(=O)N2Cc3ccc(C(=O)NCCCN(C)C)n3Cc3ccccc32)ccc1-c1cccc2ccccc12 [Example 80, N-[3-(Dimethylamino)propyl]-10-[3-methoxy-4-(1-naphthyl)benzoyl]-10,11-dihydro-5H-pyrrolo[2,1-c][1,4]benzodiazepine-3-carboxamide]
11 |  | 1300 nM | COc1ccccc1-c1ccc(C(=O)N2Cc3ccc(C(=O)N4CC[C@@H](N(C)C)C4)n3Cc3ccccc32)cc1C [Example 272, [(3R)-3-(Dimethylamino)pyrrolidinyl]{10-[(2′-methoxy-2-methyl[1,1′-biphenyl]-4-yl)carbonyl]-10,11-dihydro-5H-pyrrolo[2,1-c][1,4]benzodiazepin-3-yl}methanone]
